Laboratory results published in the kinase profiling compilation of Christmann-Franck et al. (2016).
Blank lines part the entries; values can stand above or below the compound they belong to.

Assays:
Test in all cases: radiometric filter-binding kinase assay
TAOK1 (human) = TAOK1 (human) (UniProt Q7L7X3)
PHKG1 (human) = PHKG1 (human) (UniProt Q16816)
SRPK1 (human) = SRPK1 (human) (UniProt Q96SB4)
BRSK1 (human) = BRSK1 (human) (UniProt Q8TDC3)
GCK (human) = GCK (human) (UniProt Q12851)
BTK (human) = BTK (human) (UniProt Q06187)
FLT1 (human) = FLT1 (human) (UniProt P17948)
RIPK2 (human) = RIPK2 (human) (UniProt O43353)
DYRK2 (human) = DYRK2 (human) (UniProt Q92630)
MINK1 (human) = MINK1 (human) (UniProt Q8N4C8)
MAP2K2 (human) = MAP2K2 (human) (UniProt P36507)
Chain of MAP2K2 (human) (P36507 whole entry, looked up): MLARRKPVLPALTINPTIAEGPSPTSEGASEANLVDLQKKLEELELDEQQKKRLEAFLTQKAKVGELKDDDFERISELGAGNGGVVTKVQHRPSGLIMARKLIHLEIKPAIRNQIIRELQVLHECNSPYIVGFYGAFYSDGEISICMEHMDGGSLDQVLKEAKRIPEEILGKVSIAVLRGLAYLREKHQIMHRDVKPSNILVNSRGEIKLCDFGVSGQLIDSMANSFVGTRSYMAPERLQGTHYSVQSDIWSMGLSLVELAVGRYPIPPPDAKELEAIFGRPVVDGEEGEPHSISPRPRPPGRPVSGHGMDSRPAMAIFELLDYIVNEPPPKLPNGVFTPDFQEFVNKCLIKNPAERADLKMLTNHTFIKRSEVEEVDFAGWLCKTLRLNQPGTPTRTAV

MAPKAPK5 (human) = MAPKAPK5 (human) (UniProt Q8IW41)
[1] = system: PAK2 (human), Q13177 [T402E]
Chain of PAK2 (human), Q13177 [T402E] (Q13177 whole entry T402E, looked up): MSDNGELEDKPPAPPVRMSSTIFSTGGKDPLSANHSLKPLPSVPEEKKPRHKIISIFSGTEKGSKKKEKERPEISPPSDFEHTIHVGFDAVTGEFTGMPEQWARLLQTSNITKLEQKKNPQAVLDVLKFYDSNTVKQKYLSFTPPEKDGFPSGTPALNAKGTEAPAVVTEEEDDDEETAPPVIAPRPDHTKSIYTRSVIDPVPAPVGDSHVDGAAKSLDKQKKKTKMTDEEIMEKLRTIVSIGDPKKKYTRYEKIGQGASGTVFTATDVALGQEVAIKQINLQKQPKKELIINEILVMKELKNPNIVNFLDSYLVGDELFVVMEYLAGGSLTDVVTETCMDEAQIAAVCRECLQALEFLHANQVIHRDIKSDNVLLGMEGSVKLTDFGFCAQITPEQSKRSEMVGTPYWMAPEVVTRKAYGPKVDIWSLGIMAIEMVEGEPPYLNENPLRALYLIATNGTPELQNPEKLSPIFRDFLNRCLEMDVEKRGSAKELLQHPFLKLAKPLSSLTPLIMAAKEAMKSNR

RPS6KA3 KD1 KD2 (human) = RPS6KA3 KD1 KD2 (human) (UniProt P51812)
MST4 (human) = MST4 (human) (UniProt Q9P289)
INSRR (human) = INSRR (human) (UniProt P14616)
CSNK2A1 (human) = CSNK2A1 (human) (UniProt P68400)
Chain of CSNK2A1 (human) (P68400 whole entry, looked up): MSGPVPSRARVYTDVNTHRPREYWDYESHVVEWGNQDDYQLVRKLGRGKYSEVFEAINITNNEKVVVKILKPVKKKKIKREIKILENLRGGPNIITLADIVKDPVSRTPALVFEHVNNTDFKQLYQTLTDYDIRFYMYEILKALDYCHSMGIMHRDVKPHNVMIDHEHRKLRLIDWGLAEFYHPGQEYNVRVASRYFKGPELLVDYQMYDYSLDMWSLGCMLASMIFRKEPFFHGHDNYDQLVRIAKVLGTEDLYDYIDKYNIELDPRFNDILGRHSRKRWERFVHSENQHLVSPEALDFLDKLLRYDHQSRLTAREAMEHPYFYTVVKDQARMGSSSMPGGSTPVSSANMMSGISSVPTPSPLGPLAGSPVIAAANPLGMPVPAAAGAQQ

MAPK10 (human) = MAPK10 (human) (UniProt P53779)
ERBB4 (human) = ERBB4 (human) (UniProt Q15303)
Chain of ERBB4 (human) (Q15303 whole entry, looked up): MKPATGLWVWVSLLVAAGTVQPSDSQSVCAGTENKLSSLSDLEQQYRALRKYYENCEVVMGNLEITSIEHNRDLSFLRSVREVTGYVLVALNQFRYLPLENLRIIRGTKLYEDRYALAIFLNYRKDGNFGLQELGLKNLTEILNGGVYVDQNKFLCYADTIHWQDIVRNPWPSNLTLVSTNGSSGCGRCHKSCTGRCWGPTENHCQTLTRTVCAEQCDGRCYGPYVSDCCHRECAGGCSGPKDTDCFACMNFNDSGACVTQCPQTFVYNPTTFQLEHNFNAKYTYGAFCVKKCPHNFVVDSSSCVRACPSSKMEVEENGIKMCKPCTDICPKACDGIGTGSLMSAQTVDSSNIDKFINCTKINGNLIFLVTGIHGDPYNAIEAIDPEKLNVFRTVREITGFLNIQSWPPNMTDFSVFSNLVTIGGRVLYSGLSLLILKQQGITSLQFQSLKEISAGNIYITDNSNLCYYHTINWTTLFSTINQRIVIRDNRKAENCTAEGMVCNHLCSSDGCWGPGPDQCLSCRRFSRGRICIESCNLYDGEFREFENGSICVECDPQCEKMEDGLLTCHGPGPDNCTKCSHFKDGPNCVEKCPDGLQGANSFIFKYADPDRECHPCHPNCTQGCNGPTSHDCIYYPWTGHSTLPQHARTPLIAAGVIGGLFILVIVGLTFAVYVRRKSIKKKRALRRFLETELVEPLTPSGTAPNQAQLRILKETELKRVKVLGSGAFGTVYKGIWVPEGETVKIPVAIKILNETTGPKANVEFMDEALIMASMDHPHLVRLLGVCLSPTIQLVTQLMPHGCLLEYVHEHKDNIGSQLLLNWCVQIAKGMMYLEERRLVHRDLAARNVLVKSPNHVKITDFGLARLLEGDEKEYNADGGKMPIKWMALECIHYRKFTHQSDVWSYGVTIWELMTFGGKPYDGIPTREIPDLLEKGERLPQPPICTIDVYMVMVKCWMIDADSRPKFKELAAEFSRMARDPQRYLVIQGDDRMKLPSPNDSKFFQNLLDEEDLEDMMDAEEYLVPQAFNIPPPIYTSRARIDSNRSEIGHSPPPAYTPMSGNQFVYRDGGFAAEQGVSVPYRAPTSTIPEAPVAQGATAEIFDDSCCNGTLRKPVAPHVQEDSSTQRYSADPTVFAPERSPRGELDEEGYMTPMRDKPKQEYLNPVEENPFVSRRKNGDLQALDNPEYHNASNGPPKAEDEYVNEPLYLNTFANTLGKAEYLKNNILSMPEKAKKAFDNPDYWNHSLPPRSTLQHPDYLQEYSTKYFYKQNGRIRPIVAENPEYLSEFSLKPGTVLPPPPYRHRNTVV

FGFR1 (human) = FGFR1 (human) (UniProt P11362)
AURKA (human) = AURKA (human) (UniProt O14965)
Chain of AURKA (human) (O14965 whole entry, looked up): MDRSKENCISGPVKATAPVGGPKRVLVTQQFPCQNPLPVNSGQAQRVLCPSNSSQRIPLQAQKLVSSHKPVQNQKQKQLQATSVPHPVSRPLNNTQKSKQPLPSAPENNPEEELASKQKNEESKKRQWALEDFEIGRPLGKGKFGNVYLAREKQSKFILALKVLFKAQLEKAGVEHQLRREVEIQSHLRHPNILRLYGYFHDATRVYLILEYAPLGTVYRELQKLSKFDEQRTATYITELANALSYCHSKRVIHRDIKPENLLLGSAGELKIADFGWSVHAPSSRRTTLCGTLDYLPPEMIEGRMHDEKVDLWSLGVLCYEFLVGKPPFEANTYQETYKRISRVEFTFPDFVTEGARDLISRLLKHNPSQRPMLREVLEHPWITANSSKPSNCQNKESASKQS

PRKACA (human) = PRKACA (human) (UniProt P17612)
MAPK12 (human) = MAPK12 (human) (UniProt P53778)
PRKCA (human) = PRKCA (human) (UniProt P17252)
MAP2K6 (human) = MAP2K6 (human) (UniProt P52564)
PIM2 (human) = PIM2 (human) (UniProt Q9P1W9)
[2] = system: SGK1 (human), O00141 [S422D]
CHEK1 (human) = CHEK1 (human) (UniProt O14757)
PIM3 (human) = PIM3 (human) (UniProt Q86V86)
CDK2 CCNA2 (human) = CDK2 CCNA2 (human) (UniProt P20248+P24941)
AURKB (human) = AURKB (human) (UniProt Q96GD4)
EPHA2 (human) = EPHA2 (human) (UniProt P29317)
MAPKAPK3 (human) = MAPKAPK3 (human) (UniProt Q16644)
Chain of MAPKAPK3 (human) (Q16644 whole entry, looked up): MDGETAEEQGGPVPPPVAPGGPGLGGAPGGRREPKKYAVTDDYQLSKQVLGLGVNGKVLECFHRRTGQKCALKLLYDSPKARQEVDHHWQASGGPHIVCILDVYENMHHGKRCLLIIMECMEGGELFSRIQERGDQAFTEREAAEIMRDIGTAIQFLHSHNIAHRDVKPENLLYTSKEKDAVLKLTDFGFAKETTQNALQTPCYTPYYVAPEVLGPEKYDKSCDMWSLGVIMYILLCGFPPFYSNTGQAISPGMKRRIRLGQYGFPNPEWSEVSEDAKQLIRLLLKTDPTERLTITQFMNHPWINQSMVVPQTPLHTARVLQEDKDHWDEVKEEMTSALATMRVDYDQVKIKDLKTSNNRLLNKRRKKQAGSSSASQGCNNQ

MELK (human) = MELK (human) (UniProt Q14680)
EEF2K (human) = EEF2K (human) (UniProt O00418)
MAPK15 (human) = MAPK15 (human) (UniProt Q8TD08)
Chain of MAPK15 (human) (Q8TD08 whole entry, looked up): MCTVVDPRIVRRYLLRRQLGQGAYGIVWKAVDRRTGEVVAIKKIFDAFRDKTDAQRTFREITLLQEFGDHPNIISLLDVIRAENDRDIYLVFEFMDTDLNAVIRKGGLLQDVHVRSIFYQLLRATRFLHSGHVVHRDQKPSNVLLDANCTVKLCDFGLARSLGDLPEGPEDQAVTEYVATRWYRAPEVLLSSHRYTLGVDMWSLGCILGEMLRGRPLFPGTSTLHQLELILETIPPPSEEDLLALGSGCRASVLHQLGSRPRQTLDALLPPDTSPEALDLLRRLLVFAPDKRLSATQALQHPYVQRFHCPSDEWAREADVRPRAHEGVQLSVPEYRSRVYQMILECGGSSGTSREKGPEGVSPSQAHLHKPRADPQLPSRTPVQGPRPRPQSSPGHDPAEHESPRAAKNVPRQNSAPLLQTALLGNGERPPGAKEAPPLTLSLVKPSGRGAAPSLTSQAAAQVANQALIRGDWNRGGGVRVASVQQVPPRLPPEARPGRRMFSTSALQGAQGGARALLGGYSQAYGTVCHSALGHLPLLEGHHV

Chain of TAOK1 (human) (Q7L7X3 whole entry, looked up): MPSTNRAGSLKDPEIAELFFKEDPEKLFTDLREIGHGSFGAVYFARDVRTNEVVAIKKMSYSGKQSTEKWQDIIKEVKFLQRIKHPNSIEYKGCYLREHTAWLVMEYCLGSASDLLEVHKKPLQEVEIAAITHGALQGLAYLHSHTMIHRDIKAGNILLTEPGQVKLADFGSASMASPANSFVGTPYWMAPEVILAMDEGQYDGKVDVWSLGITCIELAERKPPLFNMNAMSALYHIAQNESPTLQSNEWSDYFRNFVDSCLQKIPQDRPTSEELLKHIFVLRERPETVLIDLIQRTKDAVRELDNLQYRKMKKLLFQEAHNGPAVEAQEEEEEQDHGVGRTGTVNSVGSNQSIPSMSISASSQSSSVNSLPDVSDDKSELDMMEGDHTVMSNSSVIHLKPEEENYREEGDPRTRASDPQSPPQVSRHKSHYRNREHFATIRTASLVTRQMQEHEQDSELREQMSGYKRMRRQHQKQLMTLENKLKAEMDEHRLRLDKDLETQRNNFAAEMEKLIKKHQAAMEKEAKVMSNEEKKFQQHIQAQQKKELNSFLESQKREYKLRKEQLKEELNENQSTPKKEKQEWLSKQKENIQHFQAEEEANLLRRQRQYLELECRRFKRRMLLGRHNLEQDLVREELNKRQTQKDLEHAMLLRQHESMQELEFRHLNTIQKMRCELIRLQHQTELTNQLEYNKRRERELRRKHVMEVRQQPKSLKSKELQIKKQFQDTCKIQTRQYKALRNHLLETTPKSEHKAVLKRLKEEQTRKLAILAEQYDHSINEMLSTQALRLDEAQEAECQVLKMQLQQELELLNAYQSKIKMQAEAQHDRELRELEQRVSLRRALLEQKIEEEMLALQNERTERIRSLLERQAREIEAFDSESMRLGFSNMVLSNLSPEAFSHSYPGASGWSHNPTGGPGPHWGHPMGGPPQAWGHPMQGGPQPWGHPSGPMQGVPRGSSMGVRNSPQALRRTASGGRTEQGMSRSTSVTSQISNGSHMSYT

- residual activity (TAOK1 (human); compound 0.1 µM): 78%
- residual activity (TAOK1 (human); compound 1.0 µM): 71%
- residual activity (PHKG1 (human); compound 0.1 µM): 78%
- residual activity (PHKG1 (human); compound 1.0 µM): 28%
- residual activity (SRPK1 (human); compound 0.1 µM): 86%
- residual activity (SRPK1 (human); compound 1.0 µM): 101%
- residual activity (BRSK1 (human); compound 0.1 µM): 99%
- residual activity (BRSK1 (human); compound 1.0 µM): 82%
- residual activity (GCK (human); compound 0.1 µM): 77%
- residual activity (GCK (human); compound 1.0 µM): 64%
- residual activity (BTK (human); compound 0.1 µM): 89%
- residual activity (BTK (human); compound 1.0 µM): 77%
- residual activity (FLT1 (human); compound 0.1 µM): 87%
- residual activity (FLT1 (human); compound 1.0 µM): 74%
- residual activity (RIPK2 (human); compound 0.1 µM): 109%
- residual activity (RIPK2 (human); compound 1.0 µM): 112%
- residual activity (DYRK2 (human); compound 0.1 µM): 92%
- residual activity (DYRK2 (human); compound 1.0 µM): 101%
- residual activity (MINK1 (human); compound 0.1 µM): 123%
- residual activity (MINK1 (human); compound 1.0 µM): 103%
- residual activity (MAP2K2 (human); compound 0.1 µM): 106%
- residual activity (MAP2K2 (human); compound 1.0 µM): 75%
- residual activity (MAPKAPK5 (human); compound 0.1 µM): 104%
- residual activity (MAPKAPK5 (human); compound 1.0 µM): 122%
- residual activity ([1]; compound 0.1 µM): 101%
- residual activity ([1]; compound 1.0 µM): 92%
- residual activity (RPS6KA3 KD1 KD2 (human); compound 0.1 µM): 71%
- residual activity (RPS6KA3 KD1 KD2 (human); compound 1.0 µM): 56%
- residual activity (MST4 (human); compound 0.1 µM): 87%
- residual activity (MST4 (human); compound 1.0 µM): 94%
- residual activity (INSRR (human); compound 0.1 µM): 107%
- residual activity (INSRR (human); compound 1.0 µM): 118%
- residual activity (CSNK2A1 (human); compound 0.1 µM): 86%
- residual activity (CSNK2A1 (human); compound 1.0 µM): 86%
- residual activity (MAPK10 (human); compound 0.1 µM): 110%
- residual activity (MAPK10 (human); compound 1.0 µM): 97%
- residual activity (ERBB4 (human); compound 0.1 µM): 90%
- residual activity (ERBB4 (human); compound 1.0 µM): 95%
- residual activity (FGFR1 (human); compound 0.1 µM): 83%
- residual activity (FGFR1 (human); compound 1.0 µM): 63%
- residual activity (AURKA (human); compound 0.1 µM): 87%
- residual activity (AURKA (human); compound 1.0 µM): 29%
- residual activity (PRKACA (human); compound 0.1 µM): 90%
- residual activity (PRKACA (human); compound 1.0 µM): 100%
- residual activity (MAPK12 (human); compound 0.1 µM): 88%
- residual activity (MAPK12 (human); compound 1.0 µM): 85%
- residual activity (PRKCA (human); compound 0.1 µM): 79%
- residual activity (PRKCA (human); compound 1.0 µM): 93%
- residual activity (MAP2K6 (human); compound 0.1 µM): 105%
- residual activity (MAP2K6 (human); compound 1.0 µM): 113%
- residual activity (PIM2 (human); compound 0.1 µM): 94%
- residual activity (PIM2 (human); compound 1.0 µM): 85%
- residual activity ([2]; compound 0.1 µM): 81%
- residual activity ([2]; compound 1.0 µM): 94%
- residual activity (CHEK1 (human); compound 0.1 µM): 93%
- residual activity (CHEK1 (human); compound 1.0 µM): 57%
- residual activity (PIM3 (human); compound 0.1 µM): 104%
- residual activity (PIM3 (human); compound 1.0 µM): 111%
- residual activity (CDK2 CCNA2 (human); compound 0.1 µM): 86%
- residual activity (CDK2 CCNA2 (human); compound 1.0 µM): 47%
- residual activity (AURKB (human); compound 0.1 µM): 80%
- residual activity (AURKB (human); compound 1.0 µM): 54%
- residual activity (EPHA2 (human); compound 0.1 µM): 95%
- residual activity (EPHA2 (human); compound 1.0 µM): 98%
- residual activity (MAPKAPK3 (human); compound 0.1 µM): 80%
- residual activity (MAPKAPK3 (human); compound 1.0 µM): 104%
- residual activity (MELK (human); compound 0.1 µM): 43%
- residual activity (MELK (human); compound 1.0 µM): 26%
- residual activity (EEF2K (human); compound 0.1 µM): 98%
- residual activity (EEF2K (human); compound 1.0 µM): 110%
Structure (SMILES): O=C(NCCCNc1nc(Nc2cccc(CN3CCOCC3)c2)ncc1C1CC1)C1CCC1
- residual activity (MAPK15 (human); compound 0.1 µM): 81%
- residual activity (MAPK15 (human); compound 1.0 µM): 34%

- residual activity (TAOK1 (human); compound 1.0 µM): 103%
- residual activity (TAOK1 (human); compound 5.0 µM): 102%
- residual activity (PHKG1 (human); compound 1.0 µM): 100%
- residual activity (PHKG1 (human); compound 5.0 µM): 103%
- residual activity (PHKG1 (human); compound 10.0 µM): 108%
- residual activity (SRPK1 (human); compound 1.0 µM): 62%
- residual activity (SRPK1 (human); compound 5.0 µM): 47%
- residual activity (SRPK1 (human); compound 10.0 µM): 84%
- residual activity (BRSK1 (human); compound 1.0 µM): 29%
- residual activity (BRSK1 (human); compound 5.0 µM): 24%
- residual activity (GCK (human); compound 1.0 µM): 30%
- residual activity (GCK (human); compound 5.0 µM): 2%
- residual activity (BTK (human); compound 1.0 µM): 28%
- residual activity (BTK (human); compound 5.0 µM): 19%
- residual activity (BTK (human); compound 10.0 µM): 27%
- residual activity (FLT1 (human); compound 1.0 µM): 6%
- residual activity (FLT1 (human); compound 5.0 µM): 4%
- residual activity (FLT1 (human); compound 10.0 µM): 47%
- residual activity (RIPK2 (human); compound 1.0 µM): 117%
- residual activity (RIPK2 (human); compound 5.0 µM): 114%
- residual activity (DYRK2 (human); compound 1.0 µM): 68%
- residual activity (DYRK2 (human); compound 5.0 µM): 45%
- residual activity (DYRK2 (human); compound 10.0 µM): 64%
- residual activity (MINK1 (human); compound 1.0 µM): 3%
- residual activity (MINK1 (human); compound 5.0 µM): 1%
- residual activity (MAP2K2 (human); compound 1.0 µM): 90%
- residual activity (MAP2K2 (human); compound 5.0 µM): 48%
- residual activity (MAPKAPK5 (human); compound 1.0 µM): 86%
- residual activity (MAPKAPK5 (human); compound 5.0 µM): 46%
- residual activity (MAPKAPK5 (human); compound 10.0 µM): 102%
- residual activity ([1]; compound 1.0 µM): 5%
- residual activity ([1]; compound 5.0 µM): 2%
- residual activity (RPS6KA3 KD1 KD2 (human); compound 1.0 µM): 12%
- residual activity (RPS6KA3 KD1 KD2 (human); compound 5.0 µM): 6%
- residual activity (RPS6KA3 KD1 KD2 (human); compound 10.0 µM): 6%
- residual activity (MST4 (human); compound 1.0 µM): 6%
- residual activity (MST4 (human); compound 5.0 µM): 8%
- residual activity (MST4 (human); compound 10.0 µM): 53%
- residual activity (INSRR (human); compound 1.0 µM): 84%
- residual activity (INSRR (human); compound 5.0 µM): 47%
- residual activity (INSRR (human); compound 10.0 µM): 83%
- residual activity (CSNK2A1 (human); compound 1.0 µM): 104%
- residual activity (CSNK2A1 (human); compound 5.0 µM): 97%
- residual activity (CSNK2A1 (human); compound 10.0 µM): 127%
- residual activity (MAPK10 (human); compound 1.0 µM): 106%
- residual activity (MAPK10 (human); compound 5.0 µM): 77%
- residual activity (ERBB4 (human); compound 1.0 µM): 62%
- residual activity (ERBB4 (human); compound 5.0 µM): 49%
- residual activity (FGFR1 (human); compound 1.0 µM): 24%
- residual activity (FGFR1 (human); compound 5.0 µM): 4%
- residual activity (FGFR1 (human); compound 10.0 µM): 29%
- residual activity (AURKA (human); compound 1.0 µM): 2%
- residual activity (AURKA (human); compound 5.0 µM): 2%
- residual activity (PRKACA (human); compound 1.0 µM): 101%
- residual activity (PRKACA (human); compound 5.0 µM): 92%
- residual activity (PRKACA (human); compound 10.0 µM): 100%
- residual activity (MAPK12 (human); compound 1.0 µM): 97%
- residual activity (MAPK12 (human); compound 5.0 µM): 99%
- residual activity (MAPK12 (human); compound 10.0 µM): 103%
- residual activity (PRKCA (human); compound 1.0 µM): 91%
- residual activity (PRKCA (human); compound 5.0 µM): 48%
- residual activity (PRKCA (human); compound 10.0 µM): 65%
- residual activity (MAP2K6 (human); compound 1.0 µM): 93%
- residual activity (MAP2K6 (human); compound 5.0 µM): 70%
- residual activity (PIM2 (human); compound 1.0 µM): 65%
- residual activity (PIM2 (human); compound 5.0 µM): 21%
- residual activity (PIM2 (human); compound 10.0 µM): 81%
- residual activity ([2]; compound 1.0 µM): 89%
- residual activity ([2]; compound 5.0 µM): 48%
- residual activity ([2]; compound 10.0 µM): 107%
- residual activity (CHEK1 (human); compound 1.0 µM): 89%
- residual activity (CHEK1 (human); compound 5.0 µM): 88%
- residual activity (CHEK1 (human); compound 10.0 µM): 88%
- residual activity (PIM3 (human); compound 1.0 µM): 76%
- residual activity (PIM3 (human); compound 5.0 µM): 17%
- residual activity (PIM3 (human); compound 10.0 µM): 58%
- residual activity (CDK2 CCNA2 (human); compound 1.0 µM): 101%
- residual activity (CDK2 CCNA2 (human); compound 5.0 µM): 106%
- residual activity (CDK2 CCNA2 (human); compound 10.0 µM): 88%
- residual activity (AURKB (human); compound 1.0 µM): 2%
- residual activity (AURKB (human); compound 5.0 µM): 2%
- residual activity (AURKB (human); compound 10.0 µM): 5%
- residual activity (EPHA2 (human); compound 1.0 µM): 91%
- residual activity (EPHA2 (human); compound 5.0 µM): 75%
- residual activity (EPHA2 (human); compound 10.0 µM): 97%
- residual activity (MAPKAPK3 (human); compound 1.0 µM): 26%
- residual activity (MAPKAPK3 (human); compound 5.0 µM): 10%
- residual activity (MELK (human); compound 1.0 µM): 13%
- residual activity (MELK (human); compound 5.0 µM): 14%
- residual activity (MELK (human); compound 10.0 µM): 97%
- residual activity (EEF2K (human); compound 1.0 µM): 83%
- residual activity (EEF2K (human); compound 5.0 µM): 60%
- residual activity (EEF2K (human); compound 10.0 µM): 89%
Structure (SMILES): Oc1ccc2ccccc2c1SSc1c(O)ccc2ccccc12
- residual activity (MAPK15 (human); compound 1.0 µM): 2%
- residual activity (MAPK15 (human); compound 5.0 µM): 1%
- residual activity (MAPK15 (human); compound 10.0 µM): 49%
